Values joined by “and” are separate entries in the source; they are usually repeats but may differ in a detail not shown here. Equal values may be shown once. One block for each compound: values may come before it.
System: MDA-MB-231 complex spheroid viability
Experiment: Anticancer human tumor MDA-MB-231/ATCC cell line growth inhibition;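 further: drug exposure lasted 7 days starting on day 3 of spheroid growth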
Details: for viability, T/C: stronger effect = lower value
How it was run: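 Complex spheroids of tumor cells with HUVEC and human MSCs, exposed to iadademstat combined with other agents. Each agent tested in half-log steps from near clinical Cmax (else 10 microM top), DMSO ≤0.25%.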

[1] = curve of first compound, second compound 0.1 µM
[2] = curve of first compound, second compound 0.316 µM
[3] = curve of first compound, second compound 1 µM
[4] = curve of first compound, second compound 3.16 µM
[5] = curve of first compound, second compound 10 µM

- IC50 (curve of compound): 181 nM and 31.7 nM
SMILES: COc1cc(Nc2ncc3c(n2)-c2ccc(Cl)cc2C(c2c(F)cccc2OC)=NC3)ccc1C(=O)O
- viability, T/C (compound 0.00316 µM): 78.5% and 52.8%
- viability, T/C (compound 0.01 µM): 60.9% and 55.1%
- viability, T/C (compound 0.0316 µM): 56.1% and 50.4%
- viability, T/C (compound 0.1 µM): 57% and 42.6%
- viability, T/C (compound 0.316 µM): 50.3% and 38.8%
- viability, T/C (compound 1 µM): 41.5% and 23.2%

- IC50 (curve of compound): 108 nM and 30.6 nM
SMILES: COc1cc(C2c3cc4c(cc3C(OC3OC5COC(C)OC5C(O)C3O)C3COC(=O)C23)OCO4)cc(OC)c1O (stereo unspecified)
- viability, T/C (compound 0.00949 µM): 96.1% and 79.9%
- viability, T/C (compound 0.03 µM): 76.1% and 47.9%
- viability, T/C (compound 0.0949 µM): 49.9% and 32.6%
- viability, T/C (compound 0.3 µM): 35% and 22.9%
- viability, T/C (compound 0.949 µM): 13.5% and 10.3%
- viability, T/C (compound 3 µM): 6.1% and 8.34%

SMILES: Nc1ncn(C2CC(O)C(CO)S2)c(=O)n1 (stereo unspecified) + NC1CC1c1ccc(-c2cccc(O)c2)cc1
- IC50 [1]: 7.45 nM
- IC50 [2]: 5.79 nM
- IC50 [3]: 3.18 nM
- IC50 [4]: 4.17 nM
- IC50 [5]: 1.08 nM
- viability, T/C (second compound 0.1 µM, first compound 0.000949 µM): 68.5%
- viability, T/C (second compound 0.1 µM, first compound 0.003 µM): 61.9%
- viability, T/C (second compound 0.1 µM, first compound 0.00949 µM): 45.6%
- viability, T/C (second compound 0.1 µM, first compound 0.03 µM): 32.4%
- viability, T/C (second compound 0.1 µM, first compound 0.0949 µM): 17%
- viability, T/C (second compound 0.1 µM, first compound 0.3 µM): 11.3%
- viability, T/C (second compound 0.316 µM, first compound 0.000949 µM): 60.4%
- viability, T/C (second compound 0.316 µM, first compound 0.003 µM): 59.5%
- viability, T/C (second compound 0.316 µM, first compound 0.00949 µM): 43.5%
- viability, T/C (second compound 0.316 µM, first compound 0.03 µM): 27.6%
- viability, T/C (second compound 0.316 µM, first compound 0.0949 µM): 17.8%
- viability, T/C (second compound 0.316 µM, first compound 0.3 µM): 9.51%
- viability, T/C (second compound 1 µM, first compound 0.000949 µM): 54%
- viability, T/C (second compound 1 µM, first compound 0.003 µM): 53.4%
- viability, T/C (second compound 1 µM, first compound 0.00949 µM): 39.1%
- viability, T/C (second compound 1 µM, first compound 0.03 µM): 28.5%
- viability, T/C (second compound 1 µM, first compound 0.0949 µM): 18.3%
- viability, T/C (second compound 1 µM, first compound 0.3 µM): 10.4%
- viability, T/C (second compound 3.16 µM, first compound 0.000949 µM): 59.4%
- viability, T/C (second compound 3.16 µM, first compound 0.003 µM): 53.7%
- viability, T/C (second compound 3.16 µM, first compound 0.00949 µM): 41.1%
- viability, T/C (second compound 3.16 µM, first compound 0.03 µM): 31%
- viability, T/C (second compound 3.16 µM, first compound 0.0949 µM): 16.1%
- viability, T/C (second compound 3.16 µM, first compound 0.3 µM): 9.57%
- viability, T/C (second compound 10 µM, first compound 0.000949 µM): 51.1%
- viability, T/C (second compound 10 µM, first compound 0.003 µM): 41.2%
- viability, T/C (second compound 10 µM, first compound 0.00949 µM): 28.2%
- viability, T/C (second compound 10 µM, first compound 0.03 µM): 19.5%
- viability, T/C (second compound 10 µM, first compound 0.0949 µM): 12.1%
- viability, T/C (second compound 10 µM, first compound 0.3 µM): 9.21%

- IC50 (curve of compound): > 10000 nM and 3920 nM
SMILES: O=C(c1cc(Cc2n[nH]c(=O)c3ccccc23)ccc1F)N1CCN(C(=O)C2CC2)CC1
- viability, T/C (compound 0.0316 µM): 92.4% and 88.5%
- viability, T/C (compound 0.1 µM): 97.9% and 79.2%
- viability, T/C (compound 0.316 µM): 85.6% and 79.3%
- viability, T/C (compound 1 µM): 72.1% and 69.9%
- viability, T/C (compound 3.16 µM): 68.6% and 53.2%
- viability, T/C (compound 10 µM): 56.6% and 32.6%

SMILES: COc1cc(Nc2ncc3c(n2)-c2ccc(Cl)cc2C(c2c(F)cccc2OC)=NC3)ccc1C(=O)O + NC1CCC(NC2CC2c2ccccc2)CC1
- IC50 [1]: 252 nM
- IC50 [2]: 179 nM
- IC50 [3]: 296 nM
- IC50 [4]: 90.1 nM
- IC50 [5]: < 3.16 nM
- viability, T/C (second compound 0.1 µM, first compound 0.00316 µM): 85%
- viability, T/C (second compound 0.1 µM, first compound 0.01 µM): 66.4%
- viability, T/C (second compound 0.1 µM, first compound 0.0316 µM): 56%
- viability, T/C (second compound 0.1 µM, first compound 0.1 µM): 58.7%
- viability, T/C (second compound 0.1 µM, first compound 0.316 µM): 50%
- viability, T/C (second compound 0.1 µM, first compound 1 µM): 44.3%
- viability, T/C (second compound 0.316 µM, first compound 0.00316 µM): 83.1%
- viability, T/C (second compound 0.316 µM, first compound 0.01 µM): 65.5%
- viability, T/C (second compound 0.316 µM, first compound 0.0316 µM): 56.2%
- viability, T/C (second compound 0.316 µM, first compound 0.1 µM): 54.9%
- viability, T/C (second compound 0.316 µM, first compound 0.316 µM): 50.8%
- viability, T/C (second compound 0.316 µM, first compound 1 µM): 42.7%
- viability, T/C (second compound 1 µM, first compound 0.00316 µM): 80.4%
- viability, T/C (second compound 1 µM, first compound 0.01 µM): 64.6%
- viability, T/C (second compound 1 µM, first compound 0.0316 µM): 55.6%
- viability, T/C (second compound 1 µM, first compound 0.1 µM): 56.2%
- viability, T/C (second compound 1 µM, first compound 0.316 µM): 51.5%
- viability, T/C (second compound 1 µM, first compound 1 µM): 45.6%
- viability, T/C (second compound 3.16 µM, first compound 0.00316 µM): 68.4%
- viability, T/C (second compound 3.16 µM, first compound 0.01 µM): 54%
- viability, T/C (second compound 3.16 µM, first compound 0.0316 µM): 51.2%
- viability, T/C (second compound 3.16 µM, first compound 0.1 µM): 54.5%
- viability, T/C (second compound 3.16 µM, first compound 0.316 µM): 48.5%
- viability, T/C (second compound 3.16 µM, first compound 1 µM): 38.2%
- viability, T/C (second compound 10 µM, first compound 0.00316 µM): 49.4%
- viability, T/C (second compound 10 µM, first compound 0.01 µM): 42.4%
- viability, T/C (second compound 10 µM, first compound 0.0316 µM): 40.7%
- viability, T/C (second compound 10 µM, first compound 0.1 µM): 38.6%
- viability, T/C (second compound 10 µM, first compound 0.316 µM): 41.8%
- viability, T/C (second compound 10 µM, first compound 1 µM): 37.2%
